Among the data in patent US7713994B2 (Wyeth LLC, priority 2005, dated 2010) are IC50 values, retold here.

Where only a bound is given, the exact number is not on record here.

The target in one assay is T1, cyclin E/CDK2 enzyme (Homo sapiens, UniProt P24941).
T1 construct: made in house; host or cells: Sf9 insect cells, recombinant baculovirus
Briefly: CDK2 ELISA kinase assay (phospho-Rb ser 795 detection). Type of assay: biochemical. The note with it: In Vitro Enzyme Assay, cyclin E/CDK2, read-out: CDK2 IC50. The procedure, abridged:
(§1)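 GST-Rb C-terminal fragment coated on plates; partially purified Sf9-expressed cyclin D1/CDK4, cyclin E/CDK2 or cyclin B/CDK1 with 200 μM ATP, pH 7.5 HEPES/MgCl2 buffer, 1 h at 30 °C; screen compound final 10 μg/ml. Phospho-Rb Ser795 detected by antibody ELISA (TMB, A450); % of control, IC50 from background-subtracted inhibition curves.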

Another assay has as its system HCT-116. The assay is described as follows: Cytotoxicity assay (SRB), HCT-116. In kind it is cell-based. The note with it: Homo sapiens, HCT-116, 72 h, HCT116 cells, 3 days, SRB; read-out: In Vitro Cellular Activity IC50 HCT116. The method, boiled down: (§2)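 Cells grown in RPMI 1640 with 5% FBS were treated with compound for three days (HCT-116, LoVo, MCF-7) or six days (BT474). Viable cell mass was quantified by sulforhodamine B staining of TCA-fixed protein and read at 540 nm.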

The next assay deals with T2, cyclin B/CDK1 enzyme (Homo sapiens, UniProt P06493).
T2 construct: purchased New England BioLabs; host or cells: Sf9 insect cells, recombinant baculovirus
Briefly: CDK1 ELISA kinase assay (phospho-Rb ser 795 detection). Type of assay: biochemical. Particulars: In Vitro Enzyme Assay, cyclin B/CDK1, read-out: CDK1 IC50. The method, boiled down: as §1

The test system of a further assay is LoVo. Briefly: Cytotoxicity assay (SRB), LoVo. In kind it is cell-based. Particulars: Homo sapiens, LoVo, 72 h, LoVo cells, 3 days, SRB; read-out: In Vitro Cellular Activity IC50 LOVO. The method, boiled down:
as §2

The next assay concerns the target T3, cyclin D1/cdk 4 enzyme (Homo sapiens, UniProt P11802).
T3 construct: made in house; host or cells: Sf9 insect cells, recombinant baculovirus
The assay is described as follows: CDK4 ELISA kinase assay (phospho-Rb ser 795 detection). The note with it: In Vitro Enzyme Assay, cyclin D1/cdk 4, read-out: CDK4 IC50. In kind it is biochemical. The procedure, abridged:
as §1
In general terms: ELISA stands for enzyme-linked immunosorbent assay.

The subject of another assay is MCF-7. The assay is described as follows: Cytotoxicity assay (SRB), MCF-7. In kind it is cell-based. Particulars: Homo sapiens, MCF7, 72 h, MCF-7 cells, 3 days, SRB; read-out: In Vitro Cellular Activity IC50 MCF-7. The method, boiled down:
as §2

The test system of a further assay is BT474. The assay is described as follows: Cytotoxicity assay (SRB), BT474. The note with it: Homo sapiens, BT-474, 144 h, BT474 cells, 6 days, SRB; read-out: In Vitro Cellular Activity IC50 BT474. In kind it is cell-based. The method, boiled down:
as §2

T2 sequence (P06493 whole entry): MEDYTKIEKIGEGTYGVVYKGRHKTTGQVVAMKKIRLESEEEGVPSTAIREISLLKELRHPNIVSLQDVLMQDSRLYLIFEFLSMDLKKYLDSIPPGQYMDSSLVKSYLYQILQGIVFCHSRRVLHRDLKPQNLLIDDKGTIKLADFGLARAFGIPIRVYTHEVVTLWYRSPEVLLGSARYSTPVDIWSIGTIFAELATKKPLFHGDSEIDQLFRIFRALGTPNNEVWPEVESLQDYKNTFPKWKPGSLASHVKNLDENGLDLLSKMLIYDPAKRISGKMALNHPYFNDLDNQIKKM
T2 sequence (P14635 whole entry partner): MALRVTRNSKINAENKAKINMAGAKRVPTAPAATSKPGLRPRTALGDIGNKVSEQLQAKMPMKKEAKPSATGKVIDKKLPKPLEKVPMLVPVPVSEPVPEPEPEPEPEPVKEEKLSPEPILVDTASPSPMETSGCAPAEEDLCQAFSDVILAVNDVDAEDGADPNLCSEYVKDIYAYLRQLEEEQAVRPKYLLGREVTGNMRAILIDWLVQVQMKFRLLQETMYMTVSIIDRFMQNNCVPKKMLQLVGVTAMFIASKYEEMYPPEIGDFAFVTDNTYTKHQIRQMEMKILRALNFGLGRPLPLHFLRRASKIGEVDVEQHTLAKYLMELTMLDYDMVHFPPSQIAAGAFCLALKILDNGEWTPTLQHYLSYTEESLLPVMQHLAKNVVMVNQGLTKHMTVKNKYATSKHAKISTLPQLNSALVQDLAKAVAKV
T3 sequence (P11802 whole entry, species assumed): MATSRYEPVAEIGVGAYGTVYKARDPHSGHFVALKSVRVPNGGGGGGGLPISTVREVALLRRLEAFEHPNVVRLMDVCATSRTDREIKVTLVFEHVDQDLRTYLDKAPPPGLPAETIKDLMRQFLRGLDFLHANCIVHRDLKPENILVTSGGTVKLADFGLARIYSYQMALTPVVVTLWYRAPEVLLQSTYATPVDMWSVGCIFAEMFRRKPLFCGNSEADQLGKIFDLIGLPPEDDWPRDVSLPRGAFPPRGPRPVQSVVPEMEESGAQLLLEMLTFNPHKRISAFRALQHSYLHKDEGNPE
T3 sequence (P24385 whole entry partner, species assumed): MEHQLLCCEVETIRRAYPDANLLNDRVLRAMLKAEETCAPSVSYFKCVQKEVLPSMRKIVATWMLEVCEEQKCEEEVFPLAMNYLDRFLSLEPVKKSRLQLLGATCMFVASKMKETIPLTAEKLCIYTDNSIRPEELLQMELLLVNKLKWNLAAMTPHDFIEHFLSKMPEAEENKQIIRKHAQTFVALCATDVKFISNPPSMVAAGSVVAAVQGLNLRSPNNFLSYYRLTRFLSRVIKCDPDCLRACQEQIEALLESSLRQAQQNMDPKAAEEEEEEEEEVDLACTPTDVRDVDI

By IC50 is commonly meant the concentration that gives 50% inhibition. Turning to `CC1CCCN1Cc1ccc(NC=C2C(=O)NC(=O)c3ccccc32)cc1` (stereo not shown) [Example 617, 4-{[4-(2-Methyl-pyrrolidin-1-ylmethyl)-phenylamino]-methylene}-4H-isoquinoline-1,3-dione], the IC50 is 21.3 µM at cyclin E/CDK2 enzyme; 7.6 µM in the assay on HCT-116; above 50 µM at cyclin B/CDK1 enzyme; 14 µM with LoVo; 16.5 µM on cyclin D1/cdk 4 enzyme; 11.2 µM with MCF-7. Further, the IC50 in the assay with BT474 worked out at 18.5 µM.

Regarding `O=C1NC(=O)c2ccc(-c3ccccc3)cc2C1=CNCc1ccc(O)c(O)c1` [Example 620, 4-[(3,4-Dihydroxy-benzylamino)-methylene]-6-phenyl-4H-isoquinoline-1,3-dione], the IC50 at cyclin E/CDK2 enzyme is 5.8 µM; in the assay with HCT-116 it was 11.7 µM; on cyclin B/CDK1 enzyme, 32.5 µM; in the assay on LoVo, 11.5 µM; at cyclin D1/cdk 4 enzyme it was 0.05 µM; in the assay on MCF-7, 11 µM. Moreover, the 50% inhibitory concentration (IC50) in the assay with BT474 stood at 15.5 µM.

Regarding `O=C1NC(=O)c2ccc(-c3ccco3)cc2C1=CNCc1ccc(O)c(O)c1` [Example 621, 4-[(3,4-Dihydroxy-benzylamino)-methylene]-6-furan-2-yl-4H-isoquinoline-1,3-dione], the IC50 on cyclin E/CDK2 enzyme was determined as 4.1 µM; in the assay with HCT-116, 9.7 µM; at cyclin B/CDK1 enzyme it was 8.1 µM; in the assay with LoVo it was 8.7 µM; at cyclin D1/cdk 4 enzyme it was 0.01 µM; in the assay with MCF-7 it was 6.8 µM. For the same molecule, the IC50 in the assay with BT474 was 3.5 µM.

Consider `N#CCc1ccc(NC=C2C(=O)NC(=O)c3ccc(-c4ccc[nH]4)cc32)cc1` [Example 630, (4-{[1,3-Dioxo-6-(1H-pyrrol-2-yl)-2,3-dihydro-1H-isoquinolin-4-ylidenemethyl]-amino}-phenyl)-acetonitrile], for which the IC50 on cyclin E/CDK2 enzyme amounted to 17.3 µM; with HCT-116, 26 µM; at cyclin B/CDK1 enzyme, 31 µM; in the assay with LoVo, 45.8 µM; at cyclin D1/cdk 4 enzyme, 0.2 µM; with MCF-7 it was 20 µM. Moreover, the IC50 in the assay on BT474 came out at 45.3 µM.

Take `NS(=O)(=O)c1ccc(CNC=C2C(=O)NC(=O)c3ccc(-c4cc5ccccc5s4)cc32)cc1` [Example 635, 4-{[(6-Benzo[b]thiophen-2-yl-1,3-dioxo-2,3-dihydro-1H-isoquinolin-4-ylidenemethyl)-amino]-methyl}-benzenesulfonamide]: the IC50 on cyclin E/CDK2 enzyme was 19.7 µM; in the assay with HCT-116, 23.6 µM; on cyclin B/CDK1 enzyme, 16.9 µM; with LoVo, above 50 µM; on cyclin D1/cdk 4 enzyme, 1.2 µM; in the assay with MCF-7, 11.4 µM. Further, in the assay on BT474, the IC50 amounted to 37.2 µM.

For the molecule `NS(=O)(=O)c1ccc(CNC=C2C(=O)NC(=O)c3ccc(-c4ccc5[nH]ccc5c4)cc32)cc1` [Example 637, 4-({[6-(1H-Indol-5-yl)-1,3-dioxo-2,3-dihydro-1H-isoquinolin-4-ylidenemethyl]-amino}-methyl)-benzenesulfonamide], the IC50 was 13.5 µM at cyclin E/CDK2 enzyme; above 50 µM in the assay on HCT-116; 18 µM at cyclin B/CDK1 enzyme; above 50 µM in the assay with LoVo; 0.81 µM on cyclin D1/cdk 4 enzyme; 22.7 µM with MCF-7. For the same molecule, the IC50 in the assay with BT474 was 29.2 µM.

Regarding `NS(=O)(=O)c1ccc(CNC=C2C(=O)NC(=O)c3ccc(-c4ccc[nH]4)cc32)cc1` [Example 638, 4-({[1,3-Dioxo-6-(1H-pyrrol-2-yl)-2,3-dihydro-1H-isoquinolin-4-ylidenemethyl]-amino}-methyl)-benzenesulfonamide], the half-maximal inhibitory concentration (IC50) on cyclin E/CDK2 enzyme is 6 µM; in the assay with HCT-116, above 50 µM; on cyclin B/CDK1 enzyme it was 17.3 µM; in the assay on LoVo, above 50 µM; on cyclin D1/cdk 4 enzyme it was 0.05 µM; with MCF-7, above 50 µM. The IC50 with BT474 came out at 35.9 µM.

For the molecule `NS(=O)(=O)c1ccc(CNC=C2C(=O)NC(=O)c3ccc(-c4cc[nH]c4)cc32)cc1` [Example 639, 4-({[1,3-Dioxo-6-(1H-pyrrol-3-yl)-2,3-dihydro-1H-isoquinolin-4-ylidenemethyl]-amino}-methyl)-benzenesulfonamide], the IC50 is 19.7 µM at cyclin E/CDK2 enzyme; above 50 µM in the assay with HCT-116; above 50 µM on cyclin B/CDK1 enzyme; above 50 µM with LoVo; 9.2 µM on cyclin D1/cdk 4 enzyme; 25.8 µM in the assay with MCF-7. In addition, in the assay on BT474, the IC50 was determined as 18.7 µM.

Turning to `O=C1NC(=O)c2ccc(-c3ccc4ccccc4c3)cc2C1=CNCc1ccc(O)c(O)c1` [Example 641, 4-[(3,4-Dihydroxy-benzylamino)-methylene]-6-naphthalen-2-yl-4H-isoquinoline-1,3-dione], the IC50 at cyclin E/CDK2 enzyme was above 50 µM; with HCT-116 it was 10.5 µM; at cyclin B/CDK1 enzyme, above 50 µM; with LoVo it was 9.4 µM; at cyclin D1/cdk 4 enzyme it was 1.9 µM; in the assay on MCF-7 it was 9.6 µM. The IC50 in the assay on BT474 came out at 19.7 µM.

On to `O=C1NC(=O)c2ccc(-c3cccc4cccnc34)cc2C1=CNCc1ccc(O)c(O)c1` [Example 642, 4-[(3,4-Dihydroxy-benzylamino)-methylene]-6-quinolin-8-yl-4H-isoquinoline-1,3-dione], for which the IC50 at cyclin E/CDK2 enzyme is 28.3 µM; in the assay with HCT-116, 20.5 µM; at cyclin B/CDK1 enzyme, above 50 µM; in the assay with LoVo, 12.1 µM; at cyclin D1/cdk 4 enzyme it was 1 µM; in the assay on MCF-7, 12.7 µM. In addition, the IC50 with BT474 amounted to 14.2 µM.

With `O=C1NC(=O)c2ccc(-c3cc4ccccc4s3)cc2C1=CNCc1ccc(O)c(O)c1` [Example 644, 6-Benzo[b]thiophen-2-yl-4-[(3,4-dihydroxy-benzylamino)-methylene]-4H-isoquinoline-1,3-dione], the IC50 on cyclin E/CDK2 enzyme was above 50 µM; in the assay on HCT-116, 14.1 µM; on cyclin B/CDK1 enzyme, above 50 µM; in the assay with LoVo it was 19.1 µM; at cyclin D1/cdk 4 enzyme, 2 µM; in the assay on MCF-7, 6.3 µM. Moreover, the IC50 in the assay on BT474 amounted to 17.9 µM.

As to `O=C1NC(=O)c2ccc(-c3ccc4[nH]ccc4c3)cc2C1=CNCc1ccc(O)c(O)c1` [Example 646, 4-[(3,4-Dihydroxy-benzylamino)-methylene]-6-(1H-indol-5-yl)-4H-isoquinoline-1,3-dione], the IC50 was found to be 2.9 µM on cyclin E/CDK2 enzyme; 8.4 µM with HCT-116; 13.5 µM on cyclin B/CDK1 enzyme; 10.7 µM with LoVo; 0.04 µM at cyclin D1/cdk 4 enzyme; 7.7 µM in the assay with MCF-7. The IC50 in the assay on BT474 was found to be 11.9 µM.

For `O=C1NC(=O)c2ccc(-c3ccc[nH]3)cc2C1=CNCc1ccc(O)c(O)c1` [Example 647, 4-[(3,4-Dihydroxy-benzylamino)-methylene]-6-(1H-pyrrol-2-yl)-4H-isoquinoline-1,3-dione], the IC50 at cyclin E/CDK2 enzyme was 2.6 µM; with HCT-116, 15.3 µM; at cyclin B/CDK1 enzyme, 8.6 µM; with LoVo, 9.5 µM; on cyclin D1/cdk 4 enzyme, below 0.005 µM; with MCF-7, 19.5 µM. Besides, the IC50 in the assay with BT474 is 18.3 µM.

Consider `NS(=O)(=O)c1ccc(CNC=C2C(=O)NC(=O)c3ccc(C=Cc4cnccn4)cc32)cc1` [Example 655, 4-({[1,3-Dioxo-6-(2-pyrazin-2-yl-vinyl)-2,3-dihydro-1H-isoquinolin-4-ylidenemethyl]-amino}-methyl)-benzenesulfonamide], for which the IC50 at cyclin E/CDK2 enzyme is 11 µM; in the assay with HCT-116, 1.2 µM; on cyclin B/CDK1 enzyme, 23.6 µM; in the assay on LoVo it was 7.6 µM; at cyclin D1/cdk 4 enzyme, 0.57 µM; in the assay with MCF-7, 7.7 µM. The IC50 with BT474 amounted to 2 µM.

In the case of `Cc1ncsc1C=Cc1ccc2c(c1)C(=CNCc1ccc(S(N)(=O)=O)cc1)C(=O)NC2=O` [Example 659, 4-[({6-[2-(4-Methyl-thiazol-5-yl)-vinyl]-1,3-dioxo-2,3-dihydro-1H-isoquinolin-4-ylidenemethyl}-amino)-methyl]-benzenesulfonamide], the IC50 is 18 µM on cyclin E/CDK2 enzyme; 26 µM in the assay with HCT-116; above 50 µM at cyclin B/CDK1 enzyme; above 50 µM with LoVo; 0.44 µM on cyclin D1/cdk 4 enzyme; 40.9 µM with MCF-7. For the same molecule, the IC50 in the assay on BT474 worked out at 23.1 µM.

As to `O=C1NC(=O)c2ccc(C=CCc3ccccc3)cc2C1=CNCc1ccc(O)c(O)c1` [Example 660, 4-[(3,4-Dihydroxy-benzylamino)-methylene]-6-(3-phenyl-propenyl)-4H-isoquinoline-1,3-dione], the IC50 is 33.9 µM at cyclin E/CDK2 enzyme; 7 µM in the assay on HCT-116; above 50 µM on cyclin B/CDK1 enzyme; 7.6 µM in the assay with LoVo; 2.48 µM at cyclin D1/cdk 4 enzyme; 6.1 µM in the assay with MCF-7. Moreover, the IC50 in the assay on BT474 worked out at 10.4 µM.
